Test results reported in ChEMBL document CHEMBL1201862, “PubChem BioAssay data set” (2004).
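Growth conditions: 96-well plates. Treatment: test compound, 48 hours, 5 concentrations. Analysis: linear interpolation between bracketing concentrations; unreached endpoints set to highest concentration. GI50 is the concentration that inhibits growth by half.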 Calls of active or inactive are those of the source. Cut-off read from the data, not from the text of the source: active = GI50 up to about 1.1 µM and inactive = higher.

Assays:
Experiment in all cases: growth of human tumour cells (NCI), 48 h
[1] = test system: NCI-H226
[2] = test system: Malme-3M
[3] = test system: HCT-116
[4] = test system: BT-549
[5] = test system: RXF 393
[6] = test system: SN12C
[7] = test system: HT-29
[8] = test system: SF-268
[9] = test system: K562
[10] = test system: OVCAR-4
[11] = test system: HL-60
[12] = test system: MDA-MB-231
[13] = test system: A498
[14] = test system: UO-31
[15] = test system: KM12
[16] = test system: HCT-15
[17] = test system: DU-145
[18] = test system: NCI-H522
[19] = test system: NCI-H460
[20] = test system: SF-539

Structure (SMILES)	GI50 [1]	GI50 [2]	GI50 [3]	GI50 [4]	GI50 [5]	GI50 [6]	GI50 [7]	GI50 [8]	GI50 [9]	GI50 [10]	GI50 [11]	GI50 [12]	GI50 [13]	GI50 [14]	GI50 [15]	GI50 [16] [µM]	GI50 [17]	GI50 [18]	GI50 [19]	GI50 [20]
O=C(O)c1ccccc1C1c2ccccc2Oc2ccccc21	16.4 µM (inactive)	26.7 µM (inactive)	45.3 µM (inactive)	72.3 µM (inactive)	69.5 µM (inactive)	46 µM (inactive)	74.6 µM (inactive)	28.8 µM (inactive)	75.2 µM (inactive)	69.7 µM (inactive)	39 µM (inactive)	> 100 µM (inactive)	27.7 µM (inactive)	65.8 µM (inactive)	62.2 µM (inactive)	36.9	46.7 µM (inactive)	26.8 µM (inactive)	39.9 µM (inactive)	–
COc1cc2cc(C(=O)N3CC(CCl)c4ccc([N+](C)(C)Cc5ccccc5[N+](=O)[O-])cc43)[nH]c2c(OC)c1OC (stereo not drawn)	1.48 µM (inactive)	1.73 µM (inactive)	1.66 µM (inactive)	1.95 µM (inactive)	0.652 µM (active)	4.05 µM (inactive)	0.962 µM (active)	1.71 µM (inactive)	1.71 µM (inactive)	2.41 µM (inactive)	2.77 µM (inactive)	3.94 µM (inactive)	0.398 µM (active)	1.33 µM (inactive)	2.24 µM (inactive)	2.14	1.53 µM (inactive)	0.198 µM (active)	–	1.63 µM (inactive)
CC(C)(Cl)C(Br)CCC(C)(Cl)C(Br)CBr (stereo not drawn)	25.4 µM (inactive)	22.4 µM (inactive)	18.8 µM (inactive)	13.3 µM (inactive)	32.7 µM (inactive)	22.1 µM (inactive)	19.5 µM (inactive)	37.2 µM (inactive)	22.5 µM (inactive)	28.3 µM (inactive)	19.4 µM (inactive)	23.3 µM (inactive)	22.5 µM (inactive)	31.9 µM (inactive)	–	24.6	29 µM (inactive)	16.3 µM (inactive)	20 µM (inactive)	24.5 µM (inactive)
Cn1c(=O)c2c(nc(NCCCCl)n2CC(=O)NCCCCl)n(C)c1=O	> 100 µM (inactive)	–	> 100 µM (inactive)	> 100 µM (inactive)	> 100 µM (inactive)	> 100 µM (inactive)	> 100 µM (inactive)	> 100 µM (inactive)	> 100 µM (inactive)	> 100 µM (inactive)	> 100 µM (inactive)	> 100 µM (inactive)	> 100 µM (inactive)	> 100 µM (inactive)	> 100 µM (inactive)	> 100	> 100 µM (inactive)	> 100 µM (inactive)	> 100 µM (inactive)	–
CCOC(=O)CCCN	> 100 µM (inactive)	> 100 µM (inactive)	> 100 µM (inactive)	> 100 µM (inactive)	> 100 µM (inactive)	> 100 µM (inactive)	> 100 µM (inactive)	> 100 µM (inactive)	> 100 µM (inactive)	> 100 µM (inactive)	> 100 µM (inactive)	> 100 µM (inactive)	> 100 µM (inactive)	> 100 µM (inactive)	> 100 µM (inactive)	> 100	> 100 µM (inactive)	> 100 µM (inactive)	> 100 µM (inactive)	–
NNc1nnc(-c2nnc(NN)o2)o1	> 10 µM (inactive)	> 10 µM (inactive)	> 10 µM (inactive)	> 10 µM (inactive)	> 10 µM (inactive)	> 10 µM (inactive)	> 10 µM (inactive)	> 10 µM (inactive)	> 10 µM (inactive)	> 10 µM (inactive)	> 10 µM (inactive)	> 10 µM (inactive)	> 10 µM (inactive)	> 10 µM (inactive)	> 10 µM (inactive)	> 10	> 10 µM (inactive)	–	> 10 µM (inactive)	> 10 µM (inactive)
O=C(Nc1nccs1)NS(=O)(=O)n1cnc2ccccc21	> 100 µM (inactive)	> 100 µM (inactive)	> 100 µM (inactive)	> 100 µM (inactive)	> 100 µM (inactive)	> 100 µM (inactive)	> 100 µM (inactive)	> 100 µM (inactive)	–	> 100 µM (inactive)	> 100 µM (inactive)	> 100 µM (inactive)	> 100 µM (inactive)	> 100 µM (inactive)	> 100 µM (inactive)	> 100	> 100 µM (inactive)	> 100 µM (inactive)	> 100 µM (inactive)	> 100 µM (inactive)
CC1(C)C/C(=N/O)c2c(nc3ccc4ccccc4c3c2-c2ccc(Cl)cc2)C1	21 µM (inactive)	–	11 µM (inactive)	10.6 µM (inactive)	17.6 µM (inactive)	10.8 µM (inactive)	15.4 µM (inactive)	14.2 µM (inactive)	19 µM (inactive)	13.8 µM (inactive)	9.14 µM (inactive)	11.6 µM (inactive)	19.5 µM (inactive)	16.8 µM (inactive)	42 µM (inactive)	16.4	16.5 µM (inactive)	15.3 µM (inactive)	6.14 µM (inactive)	16.6 µM (inactive)
CC1OC(OC2C(OC(=O)[C@]34CCC(C)(C)C[C@H]3C3=CC[C@@H]5[C@@]6(C)CC[C@H](OC7OC(C(=O)O)C(O)C(O)C7O)C(C)(C)[C@@H]6CC[C@@]5(C)[C@]3(C)C[C@H]4O)OCC(O)C2O)C(O)C(O)C1OC1OCC(OC2OCC(O)C(O)C2O)C(O)C1O (stereo partly drawn)	6.92 µM (inactive)	11.4 µM (inactive)	4.66 µM (inactive)	3.28 µM (inactive)	14.3 µM (inactive)	2.42 µM (inactive)	3.4 µM (inactive)	12.6 µM (inactive)	11.4 µM (inactive)	5.32 µM (inactive)	3.96 µM (inactive)	3.45 µM (inactive)	1.48 µM (inactive)	2.13 µM (inactive)	3.61 µM (inactive)	14.7	11.3 µM (inactive)	4.94 µM (inactive)	16.4 µM (inactive)	–
COc1c2c(cc3c1C1(O)Cc4ccc5c(c4C[N+]1(C)CC3)OCO5)OCO2 (stereo not drawn)	> 100 µM (inactive)	> 100 µM (inactive)	35.1 µM (inactive)	> 100 µM (inactive)	43.9 µM (inactive)	> 100 µM (inactive)	33.9 µM (inactive)	> 100 µM (inactive)	37.3 µM (inactive)	> 100 µM (inactive)	42.7 µM (inactive)	> 100 µM (inactive)	> 100 µM (inactive)	–	> 100 µM (inactive)	> 100	> 100 µM (inactive)	72.9 µM (inactive)	88.1 µM (inactive)	> 100 µM (inactive)
CC1CCC(O)(C(C)(C(=O)O)c2ccccc2)CC1 (stereo not drawn)	91.6 µM (inactive)	63.4 µM (inactive)	> 100 µM (inactive)	> 100 µM (inactive)	> 100 µM (inactive)	> 100 µM (inactive)	> 100 µM (inactive)	> 100 µM (inactive)	> 100 µM (inactive)	> 100 µM (inactive)	> 100 µM (inactive)	> 100 µM (inactive)	68.4 µM (inactive)	> 100 µM (inactive)	> 100 µM (inactive)	> 100	> 100 µM (inactive)	> 100 µM (inactive)	42.8 µM (inactive)	–
Cn1c(-c2cccs2)cc(-c2ccccc2)c1-c1cccs1	45.4 µM (inactive)	–	31.2 µM (inactive)	> 100 µM (inactive)	> 100 µM (inactive)	> 100 µM (inactive)	63 µM (inactive)	> 100 µM (inactive)	> 100 µM (inactive)	74.3 µM (inactive)	68.7 µM (inactive)	> 100 µM (inactive)	> 100 µM (inactive)	> 100 µM (inactive)	74 µM (inactive)	> 100	> 100 µM (inactive)	50.8 µM (inactive)	> 100 µM (inactive)	43.8 µM (inactive)
CC1OC(OC2C(O[C@H]3CC[C@@]4(C)[C@@H](CC[C@@H]5[C@@H]4CC[C@]4(C)[C@@H]6[C@H](C[C@@H]54)O[C@]4(CC[C@@H](C)CO4)[C@H]6C)C3)OC(CO)C(OC3OC(CO)C(O)C(OC4OCC(O)C(O)C4O)C3OC3OCC(O)C(O)C3O)C2O)C(O)C(O)C1O (stereo partly drawn)	1.87 µM (inactive)	1.26 µM (inactive)	0.321 µM (active)	1.08 µM (active)	0.54 µM (active)	–	0.495 µM (active)	1.69 µM (inactive)	–	1.47 µM (inactive)	0.282 µM (active)	2.03 µM (inactive)	1.68 µM (inactive)	1.04 µM (active)	0.518 µM (active)	1.21	1.32 µM (inactive)	0.676 µM (active)	0.625 µM (active)	0.303 µM (active)
CC1CCCN(CC(O)CN2CCCc3ccccc32)C1 (stereo not drawn)	> 100 µM (inactive)	> 100 µM (inactive)	> 100 µM (inactive)	> 100 µM (inactive)	> 100 µM (inactive)	> 100 µM (inactive)	41.6 µM (inactive)	> 100 µM (inactive)	> 100 µM (inactive)	> 100 µM (inactive)	8.02 µM (inactive)	> 100 µM (inactive)	> 100 µM (inactive)	76 µM (inactive)	> 100 µM (inactive)	> 100	> 100 µM (inactive)	64.4 µM (inactive)	–	–
